Laboratory results published in article PMC4350845, “Polyphosphatase PPN1 of Saccharomyces cerevisiae: Switching of Exopolyphosphatase and Endopolyphosphatase Activities” (PLoS ONE, 2015).

Target: T1, polyphosphatase PPN1 (Saccharomyces cerevisiae, UniProt Q04119)
T1 construct: recombinant, overexpressed in S. cerevisiae CRN/pMB1_PPN1 Sc and purified; proteolytically matured form of ~33 kDa on SDS-PAGE (precursor predicted 78 kDa); no tag mentioned
T1 sequence (Q04119 84-384): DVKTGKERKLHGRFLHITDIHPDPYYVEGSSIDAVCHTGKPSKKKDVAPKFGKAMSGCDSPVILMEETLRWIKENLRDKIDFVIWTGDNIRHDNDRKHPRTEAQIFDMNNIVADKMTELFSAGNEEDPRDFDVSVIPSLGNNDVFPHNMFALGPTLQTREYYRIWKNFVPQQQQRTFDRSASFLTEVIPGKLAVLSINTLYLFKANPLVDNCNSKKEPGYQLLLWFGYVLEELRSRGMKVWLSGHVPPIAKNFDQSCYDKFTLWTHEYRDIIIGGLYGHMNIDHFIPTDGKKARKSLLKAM
Experiment: inhibition of exopolyphosphatase activity (Pi release from PolyP208)
Assay type: biochemical
Conditions: inhibitor; PolyP208 2.5 mM as Pi, 0.1 mM CoSO4, 200 mM NH4Cl, pH 7.2, 30 C

Row | SMILES | % of control activity at 2.0 mM
1 | O=P(O)(O)OP(=O)(O)O [PPi] | PPi and PolyP3 inhibited Pi release
2 | O=P(O)(O)OP(=O)(O)OP(=O)(O)O [PolyP3] | PPi and PolyP3 inhibited Pi release
